Assay results from patent publication US20050152995A1, “Methods and compositions for promoting axon regeneration and cell replacement therapy” (priority 2003, published 2005).
Like-named read-outs stand apart in the source and are kept apart here.

Legend:
[1] = test system: severed optic nerve (astrocytes, RGC axons); assay type: in vivo, mouse
Protocol: To evaluate the effects of lithium used simultaneously with astrotoxin in optic nerve regeneration in adult mice, an on optic nerve crush was performed in adult mice. Immediately after the optic nerve crush, a piece of gelform soaked in astrotoxin solution or PBS was placed against the crush site. Thereafter, mice were divided into two groups: one group received a diet containing lithium, and the other received a control diet.
Mice were sacrificed on day 8 after the nerve crush to examine axon regeneration.
Surgical procedure: All experimental procedures and use of animals were approved by Animal Care and Use Committee in the Schepens Eye Research Institute and adhered to the ARVO statement for the Use of Animals in Ophthalmic and Vision Research. Adult C57BL/6J mice were anesthetized with a mixture of ketamine (12.5 mg/ml, Sigma) and xylazine (2.5 mg/ml, Sigma) (5 μ/g). Optic nerve was exposed intraorbitally and crushed for 3 seconds using fine forceps. Immediately after nerve crush, a piece of gelfoam soaked with L-α-aminoadipate (10 mg/ml; Sigma) was placed against the crushed site. Gelfoam soaked with phosphate buffered saline (PBS) was used as control. To ensure continued delivery of astrotoxin, the gelfoam was replaced every 3 days post-injury (DPI). Following recovery from the optic nerve surgery, mice were divided into two groups: one group received a diet supplemented with lithium ([…], Bio-Serv), and the other group received a control diet. Mice were sacrificed on 8 DPI, and the mouse serum was collected to determine serum lithium concentration (Medtox Laboratories Inc).
(§1) Retinal histology and immunohistochemistry: The eyeball and optic nerve were dissected out, fixed in 4% paraformaldehyde for 1 hr, cryoprotected and embedded in O.T.C. The tissues were then cryosectioned at 12 μm and subjected to cresyl violet staining or immunohistochemistry. For immunofluorescence labeling, tissue sections were reacted with Cy-3 conjugated mouse anti-GFAP (1:1000, Sigma) or rabbit anti-GAP-43 (1:200, Chemicon). The signal of GAP-43 was then visualized by FITC-conjugated goat anti-rabbit IgG (1:250, Vector Lab.). To detect the expression of Bcl-2 protein, the eyeballs were dissected out and embedded without fixation. Before immunostaining, retinal sections were fixed with acetone that was stored at −20° C. for 15 min and incubated with Bcl-2 antibody (1:50, Transduction lab) followed by reaction with biotinylated anti-mouse IgG (1:100, Vector Lab.) and DTAF-conjugated Streptavidin (1:100, Jackson Lab). The sections were then counter-stained with DAPI (1:150, Sigma) to reveal cell nuclei before they were mounted with Vectashield (Vector Lab) and examined under epifluorescence microscope.
Quantitation of Axon Regeneration: Following staining with anti-GAP-43 antibody, the longest distance of axon regeneration axon was measured from the crushed site in optic nerve sections. At least 4 sections were sampled from each optic nerve, and the measured lengths of regenerating axons were averaged. Statistical significance was determined by One-way ANOVA and Tukey-Kramer multiple comparison tests.

[2] = test system: severed optic nerve (astrocytes, RGC axons); assay type: in vivo, mouse; conditions: for axonal regeneration after optic nerve crush: n=5
Protocol: Optic nerve crush was performed in Bcl-2tg (14) and wild-type littermate mouse pups, prior to the knowledge of genotypes. Regeneration was assessed and corroborated by three labeling methods: anterograde axon tracing, immunofluorescent staining, and retrograde labeling of RGCs that regenerated their axons. […].
To assess the functional significance of astrocyte maturation in optic nerve regeneration, we treated adult (2-3-month-old) wild-type and Bcl-2tg mice with astrotoxin (L-alpha-aminoadipate), which selectively kills astrocytes and has minimal effects on surrounding neurons and myelin (25, 26). Immediately after optic nerve crush, gelform soaked in L-alpha-aminoadipate solution (10 mg/ml in PBS, Sigma) or PBS was placed against the crush site. […] Regenerating axons extended exclusively into the GFAP-negative area and stopped abruptly where GFAP staining reappeared (FIG. 4B, D).
To quantify axonal regeneration, we used electron microscopy to examine optic nerve sections of adult wild-type and Bcl-2tg mice treated with astrotoxin or PBS. Degenerating myelin and tissue debris were found in sections of all groups (FIG. 4I, J). In treated Bcl-2tg mice (n=5), a large number of regenerating axons were seen 0.5 mm posterior to the crush site, an area devoid of astrocytes and their cellular processes (FIG. 4J). […] In contrast, in other three groups, few axons were present in optic nerve sections if they were collected at 0.5 mm posterior to the crush (n=3/group). Regenerating axons were 20-fold more abundant in astrotoxin-treated Bcl-2tg mice than in PBS-treated wild-type mice (P<0.001) (FIG. 4K). Thus, elimination of mature astrocytes promoted robust optic nerve regeneration in adult Bcl-2tg mice.

[3] = test system: inner limiting membrane (ILM) of the retina; test: Retinal transplantation into collagenase-treated wild-type retinas; assay type: in vivo, mouse; conditions: collagenase 100 U/ml, n=4
Protocol: To distinguish implanted cells and their cellular processes from the host environment, we used retinas from mice expressing an enhanced green fluorescent protein (EGFP) transgene driven by a chicken b-actin promoter and cytomegalovirus enhancer (24′). Suspensions of retinal cells from postnatal day 0 (P0) EGFP mice were injected into the subretinal space of adult wild-type or GFAP−/−Vim−/− hosts. […] To confirm that this failure of neural integration into the wild-type hosts was not a result of the site of transplantation, we injected cells into the vitreous cavity (n=4) (FIG. 6B). […] Few neurons migrated and extended neurites into the damaged retinal area but not beyond (FIG. 1B).
To exclude the possibility that this change in the property of the ILM in GFAP−/−Vim−/− mice affected the fate of retinal transplants, we treated wild-type retinas with collagenase (100 U/ml) to break down the ILM (n=4). By comparing with untreated wild-type hosts (n=3), we found no difference in graft cell migration and neurite extension into the retinas of collagenase treated and untreated mice (data not shown).

Bcl-2 = test system: Bcl-2
Source text: as §1

[4] = test system: retinal ganglion cells (RGCs)
Protocol: The neuroprotective effect of lithium-containing diet on the survival of fluorogold (FG)-labeled RGCs was assessed.
After sacrificing, whole-mount retinas were prepared. At least 12 non-overlapping areas of the retina were selected randomly and photographed. Surviving RGCs that were labeled with FluoroGold were counted, and the density of survival RGCs was determined.

[5] = mice on lithium-containing diet, n=9, 8 DPI
Protocol: To determine whether lithium induces the expression of Bcl-2 in adult retinal neurons in vivo, we fed mice with food chow containing lithium.
Adult C57BL/6J mice were anesthetized with a mixture of ketamine (12.5 mg/ml, Sigma) and xylazine (2.5 mg/ml, Sigma) (5 μ/g). […] Mice were sacrificed on 8 DPI, and the mouse serum was collected to determine serum lithium concentration (Medtox Laboratories Inc).

[6] = adult wild-type mice, day 8 after nerve crush

N[C@@H](CCCC(=O)O)C(=O)O [astrotoxin, L-alpha-aminoadipate]
GFAP expression along the crushed optic nerve [1, 6]: a region devoid of immunorective astrocytes (GFAP-negative) was generated
axon regeneration (GAP-43 labeling) [1, 6]: no sign of regeneration
length of regenerating axons extending from the crushed site ([1]; anti-GAP-43 immunostaining, day 8 after nerve crush): 50 μm
abundance of regenerating axons relative to PBS-treated wild-type mice ([2]; adult Bcl-2tg mice, electron microscopy, 0.5 mm posterior to the crush, P<0.001): 20 fold
axonal regeneration after optic nerve crush ([2]; adult Bcl-2tg mice): robust regeneration
GFAP immunofluorescence staining in the optic nerve ([2]; adult wild-type and Bcl-2tg mice, 10 mg/ml in PBS on gelform at crush site): created a GFAP-negative area
effect on myelin and neuronal processes ([2]; adult wild-type and Bcl-2tg mice, immunofluorescence staining): no effect
axonal regeneration after optic nerve crush ([2]; adult wild-type mice): a few axons sprouted past the lesion site

collagenase
graft cell migration and neurite extension into the retina vs untreated hosts [3]: no difference

O=C([O-])[O-].[Li+].[Li+] [lithium, lithium carbonate]
Bcl-2 mRNA in retina (Bcl-2; RT-PCR, lithium-containing diet vs regular diet): strong induction
Bcl-2 protein expression in retina (Bcl-2; immunostaining, lithium-containing diet): detected in the ganglion cell layer
number of surviving RGCs ([4]; following optic nerve crush, not significant vs control (P>0.05)): 404 /mm^2
density of FG-labeled RGCs ([4]; normal retina): 2134 /mm^2
GFAP expression along the crushed optic nerve ([1]; mouse, in vivo): detected along the entire nerve
axon regeneration (GAP-43 labeling) ([1]; mouse, in vivo): no sign of regeneration
length of regenerating axons extending from the crushed site ([1]; mouse, in vivo): 80 μm
serum concentration of lithium [5]: 0.80±0.15 mEq/l
